Literature values as cited in patent publication EP4732833A1, “ROPIVACAINE MICROSPHERE AND PREPARATION METHOD THEREFOR” (Bostal Drug Delivery Co., Ltd., priority 2023, dated 2025).

Details: background statement

plasma half-life: 1.8 h
Structure (SMILES): CCCN1CCCC[C@H]1C(=O)Nc1c(C)cccc1C [Ropivacaine, (S)-N-(2,6-dimethylphenyl)-1-propylpiperidine-2-carboxamide]
